Data as given in US10463730B2 (priority 2003, dated 2019).

Tested on: xenogeneic GI-101A solid breast carcinoma tumors
Set-up: species or system nu-/nu-mice
Conditions: in vivo

## Nc1nc2c(ncn2COC(CO)CO)c(=O)[nH]1 [PBS+GCV, gancyclovir]
  Increase of average volume of tumors: 91.8%
